{"source": "patent US6803044B1", "about": "“Antimicrobial and anti-inflammatory peptides for use in human immunodeficiency virus” (priority 1999, dated 2004)", "key": {"[1]": {"conditions": "centrally administered, rabbit; cited from earlier work"}, "[2]": {"test_system": "C. albicans (clinical isolate)", "assay": "Melanocortin peptides on C. albicans viability (colony forming units)", "assay_type": "cell-based", "conditions": "for reduction of C. albicans CFU at higher concentrations: up to 10^−4M; for C. albicans colony forming units (CFU): two hours at 37° C.", "procedure": "S. aureus (ATCC 29213) and C. albicans (clinical isolate) were obtained from the collection of the Department of Microbiology, Ospedale Maggiore di Milano. C. albicans were maintained on Sabouraud'[…] periodically transferred to Sabouraud's agar plates and incubated for 48 hours at 28° C. To prepare stationary growth phase yeast, a colony was taken from the agar plate and transferred into 30 ml Sabouraud-dextrose broth and incubated for 72 hours at 32° C. Cells were centrifuged at 100×g for 10 minutes and the pellet was washed twice with distilled water. Cells were counted and suspended in Hank's balanced salt solution (“HBSS”) to the desired concentration. Viability, determined by the exclusion of 0.01% methylene blue, remained >98%. […] Cells were then washed in cold distilled water and diluted with HBSS to a concentration of 100 organisms/ml. One ml aliquots were dispensed on blood agar plates and incubated for 48 hours at 37° C. Organism viability was estimated from the number of colonies formed. In subsequent experiments using similar procedures we compared activity of α-MSH (4-10), (6-13), (11-13), ACTH (1-39), (18-39), and fluconazole, the latter an established […]. […] There were at least six replicates for each concentration of peptide. […] The reaction was stopped after three minutes by the addition of ice cold ethanol. cAMP was measured in duplicate using a commercial enzyme immunoassay (EIA) kit (Amersham, United Kingdom) after extraction via the liquid-phase method according to manufacturer's instructions."}, "S. aureus (ATCC 29213)": {"test_system": "S. aureus (ATCC 29213)", "assay": "Melanocortin peptides on S. aureus viability (colony formation)", "assay_type": "cell-based", "conditions": "two hours at 37° C.", "procedure": "S. aureus (ATCC 29213) and C. albicans (clinical isolate) were obtained from the collection of the Department of Microbiology, Ospedale Maggiore di Milano. C. albicans were maintained on Sabouraud'[…] periodically transferred to Sabouraud's agar plates and incubated for 48 hours at 28° C. To prepare stationary growth phase yeast, a colony was taken from the agar plate and transferred into 30 ml Sabouraud-dextrose broth and incubated for 72 hours at 32° C. Cells were centrifuged at 100×g for 10 minutes and the pellet was washed twice with distilled water. Cells were counted and suspended in Hank's balanced salt solution (“HBSS”) to the desired concentration. Viability, determined by the exclusion of 0.01% methylene blue, remained >98%. […] Cells were then washed in cold distilled water and diluted with HBSS to a concentration of 100 organisms/ml. One ml aliquots were dispensed on blood agar plates and incubated for 24 hours at 37° C. Organism viability was estimated from the number of colonies formed."}, "[3]": {"test_system": "C. albicans killing by human neutrophils", "assay": "C. albicans killing by human neutrophils", "assay_type": "cell-based", "conditions": "two hours at 37° C.", "procedure": "Venous blood (20 ml) from healthy volunteers was anticoagulated with heparin. Neutrophils were isolated using dextran sedimentation and Ficoll-Hypaque (Sigma Chemical Co., St. Louis, Mo., USA) centrifugation. Erythrocytes were lysed via hypotonic shock. Neutrophils represented at least 97% of the cell suspension. Cell viability, estimated by trypan blue exclusion, was >98%. Neutrophils were suspended to final concentration in HBSS. […] After incubation, the culture tubes were placed on ice to stop growth and extracellular organisms were washed twice with centrifugation at 100×g at 4° C. A 2.5% sodium desoxycholate solution was added to the suspension and the tubes were shaken for five minutes. Cold distilled water was added to obtain a suspension of 10^6 cells/ml. Two 1/100 serial dilution in HBSS were made to obtain a final suspension of 100 cells/ml. Aliquots of 1 ml were dispensed on blood agar plates and incubated for 48 hours at 37° C. Colony forming units (“CFU”) were counted at the end of the incubation period. Experiments were run in triplicate and repeated using blood from five different donors."}, "[4]": {"test_system": "HIV-1Ba-L strain in human MDM", "assay": "RT release in acutely infected monocyte derived macrophages (MDM)", "assay_type": "cell-based", "conditions": "KPV 10^−5 M daily, more pronounced on day 6, still significant on day 21", "procedure": "(§1) p24 antigen release (Cellular Products Inc. Buffalo, N.Y., USA) and reverse transcriptase (ELISA Retrosys RT assay, Innovagen, Lund, Sweden) were determined using commercial ELISA kits.\nHuman peripheral blood mononuclear cells (PBMCs) were isolated from normal donors by Ficoll-Hypaque density gradient centrifugation. Monocytes were isolated by Percoll gradient separation and allowed to differentiate into macrophages (MDM) in complete medium RPMI plus 20% FCS in 24-well tissue culture plates at 10^6 cells/mL for 7-days. MDM were infected with monocytotropic HIV-1Ba-L strain (1:10) overnight. The undiluted viral stock contained 10^7 infectious Units/mL. After 24 h, MDM were washed and resuspended in complete medium, replaced 3 times/week, for 3 weeks. RT activity was measured weekly post-infection."}, "S. aureus": {"test_system": "S. aureus", "assay": "Urokinase-induced growth enhancement of S. aureus", "assay_type": "cell-based", "conditions": "peptide 10^−6M; urokinase 500 U; four hours", "text": "In experiments on S. aureus, we determined the influence of α-MSH on urokinase-induced growth-enhancement. Hart, D. A.; Loule, T.; Krulikl, W.; Reno, C., Staphylococcus Aureus Strains Differ in Their in Vitro Responsiveness to Human Urokinase: Evidence that Methicillin-Resistant Strains are Predominantly Nonresponsive to the Growth-Enhancing Effects of Urokinase, Can. J. Microbiol. 42, 1024-31 […]. […] Appropriate dilutions of S. aureus were dispensed on agar plates and colonies counted after 24 hours incubation at 37° C."}, "NF-κB": {"test_system": "NF-κB", "assay": "Electrophoretic mobility shift assay of NF-κB DNA-binding activity in U1 cells", "assay_type": "cell-based", "conditions": "10^−5 M peptide", "text": "The mixtures were run on a 5% (30:1) acrylamide gel in 1× Tris-Borate-EDTA (TBE). Gels were dried and exposed to film for autoradiography (3 days)."}, "C. albicans [5]": {"test_system": "C. albicans", "assay": "cAMP accumulation in C. albicans (EIA)", "assay_type": "cell-based", "conditions": "10^−6M; three minutes", "procedure": "The reaction was stopped after three minutes by the addition of ice cold ethanol. cAMP was measured in duplicate using a commercial enzyme immunoassay (EIA) kit (Amersham, United Kingdom) after extraction via the liquid-phase method according to manufacturer's instructions."}, "[6]": {"test_system": "chronically HIV-1 infected promonocytic U1 cell line", "assay": "reverse transcriptase (RT) release by stimulated U1 cells (ELISA)", "assay_type": "cell-based", "conditions": "U1 cells induced by IL-6, IL-10, PMA, and in crowding condition; KPV 10^−5 M", "procedure": "(§2) Before use, cells were washed three times with HBSS (Gibco) to remove extracellular virus. […] In crowding experiments, U1 cells were seeded at the density of 2×10^5 mL and maintained in culture at 37° C. in 5% CO2 without change of medium for 7 days. […] In all experiments each condition was tested in triplicate.\nas §1"}, "[7]": {"test_system": "HIV-1 RNA in PMA-stimulated U1 cells", "assay": "Northern blot for HIV-1 RNA in U1 cells", "assay_type": "cell-based", "conditions": "PMA (1 ng/mL)-stimulated U1 cells; KPV 10^−5 M; 24 h", "text": "Total RNA was extracted by the guanidine thiocyapate phenol method using an RNA isolation kit (Tripure, Boehringer Mannheim, Indianapolis, Ind.), following the manufacturer's instructions. Ten μg of total RNA were separated by 0.8% agarose/formaldehyde gel electrophoresis and transferred onto nylon membrane. The filters were baked and hybridized for 18 hr with α^32 P-labeled HIV-full length probe (kind gift of L. Turchetto and E. Vicenzi, S. Raffaele Hospital, Milan, Italy). The radiolabelling reaction was performed using a DNA labelling kit (Ready-to-go, Pharmacia Biotech, San Francisco, Calif.). Filters were washed and exposed to X-ray film for 5 days. The labeled probe was removed by washing at 80° C. in 0.1×SSC containing 0.1% sodium dodecyl sulphate and then rehybridized witb α^32 P-labeled glyceraldehyde-3-phosphate dehydrogenase (GAPDH) cDNA probe. Densitometric analysis was performed using ImageMaster™ VDS 3.0 software (Pharmacia Biotech) and results were expressed as density units."}, "C. albicans [8]": {"test_system": "C. albicans", "assay": "α-MSH peptides on C. albicans germination (horse serum-induced)", "assay_type": "cell-based", "conditions": "horse serum-induced germ tube formation; peptide 10^−4M; 60 minutes", "procedure": "C. albicans from stationary phase cultures were washed twice with distilled water and suspended in HBSS to a final concentration of 2×10^6/ml. Hyphal growth was induced by addition of 10% inactivated horse serum (GMCO/BRL, Paisley, Great Britain) to yeast incubated for 45 minutes at 37° C. with continuous shaking. […] The percentage of filamentous cells was evaluated under a light microscope with the aid of a hartocytometer. Experiments were run in triplicate and at least 200 cells were scored. Photomicrographs were taken with a MC100 […] attached to an Axioskop Zeiss microscope."}, "[9]": {"test_system": "chronically HIV-1 infected promonocytic U1 cell line", "assay": "p24 antigen release by stimulated U1 cells (ELISA)", "assay_type": "cell-based", "conditions": "for most effective concentration for HIV inhibition (p24 release): tested 10^−13 to 10^−4 M", "procedure": "as §2, §1"}, "[10]": {"conditions": "in vivo; cited from earlier work"}, "[11]": {"conditions": "10^−4M melanocortin peptides (FIG. 11 legend: 10^−6M)"}}, "note": "Ends that are not written are not given here."}
{"substance": "10-13 sequence: α-MSH (11-13) with glycine added to form the 10-13 sequence (GKPV; ends and bridges not checked; UniProt P01189 147-150, looked up, fragment)", "values": [{"measurement": "antipyretic potency relative to the 11-13 sequence", "setting": "[1]", "result": "slightly decreased potency"}]}
{"substance": "ACTH (1-39): melanocortin peptide ACTH (1-39) (SYSMEHFRWGKPVGKKRRPVKVYPNGAEDESAEAFPLEF; Corticotropin; UniProt P01189 138-176, looked up) [reference compound]", "values": [{"measurement": "relative potency in reducing C. albicans viability", "setting": "[2]; [11]", "result": "did not reduce C. albicans viability"}, {"measurement": "reduction of C. albicans CFU at higher concentrations", "setting": "[2]", "result": "likewise ineffective"}]}
{"substance": "ACTH fragment (18-39): ACTH fragment (18-39) (CLIP) [reference compound]", "values": [{"measurement": "relative potency in reducing C. albicans viability", "setting": "[2]; [11]", "result": "did not reduce C. albicans viability"}, {"measurement": "reduction of C. albicans CFU at higher concentrations", "setting": "[2]", "result": "likewise ineffective"}]}
{"substance": "HFRWGKPV [α-MSH (6-13)]", "values": [{"measurement": "relative potency in reducing C. albicans viability", "setting": "[2]; [11]", "result": "most effective"}]}
{"substance": "KPV", "values": [{"measurement": "C. albicans colony forming units (CFU)", "setting": "[2]", "result": "greatly reduced"}, {"measurement": "S. aureus colony formation", "setting": "S. aureus (ATCC 29213)", "result": "inhibited"}, {"measurement": "killing of C. albicans by human neutrophils", "setting": "[3]", "result": "enhanced killing"}, {"measurement": "RT release", "setting": "[4]", "result": "significantly inhibited"}, {"measurement": "enhancing effect of urokinase on S. aureus colony formation", "setting": "S. aureus", "result": "significantly inhibited"}, {"measurement": "NF-κB activation (DNA binding)", "setting": "NF-κB; TNF-α-treated U1 cells", "result": "significantly reduced"}, {"measurement": "NF-κB activation (DNA binding)", "setting": "NF-κB; resting U1 cells", "result": "did not alter"}, {"measurement": "cAMP content of C. albicans", "setting": "C. albicans [5]", "result": "enhanced cAMP content"}, {"measurement": "RT release", "setting": "[6]", "result": "significantly inhibited"}, {"measurement": "reduction of both spliced and unspliced HIV-1 RNA", "setting": "[7]", "result": "approximately 50%"}, {"measurement": "reduction in the number of filamentous cells (inhibition of germination)", "setting": "C. albicans [8]", "result": "54-58%"}, {"measurement": "most effective concentration for HIV inhibition (p24 release)", "setting": "[9]; TNF-α-stimulated U1 cells", "result": "10^−5 M"}, {"measurement": "p24 release", "setting": "[9]; U1 cells induced by IL-6, IL-10, PMA, and in crowding condition, KPV 10^−5 M", "result": "significantly inhibited"}]}
{"substance": "MEHFRWG [α-MSH sequence (4-10)]", "values": [{"measurement": "inhibition of C. albicans CFU", "setting": "[2]; [11]", "result": "approximately 50%"}]}
{"substance": "NH2-Val-Pro-Lys-Ac-Cys-Cys-Ac-Lys-Pro-Val-NH2 (Ac-CKPV-NH2; also: dimer linked through Cys-Cys) [KPV dimer]", "values": [{"measurement": "effectiveness against microbes compared with α-MSH (11-13)", "setting": "[2]; S. aureus and C. albicans", "result": "at least as effective as α-MSH (11-13)"}, {"measurement": "C. albicans colony forming units (CFU)", "setting": "[2]", "result": "inhibited"}, {"measurement": "S. aureus colony formation", "setting": "S. aureus (ATCC 29213)", "result": "inhibited"}]}
{"substance": "SYSMEHFRWGKPV (listed as Homo sapiens) [α-MSH (1-13)]", "values": [{"measurement": "C. albicans colony forming units (CFU)", "setting": "[2]", "result": "greatly reduced"}, {"measurement": "S. aureus colony formation", "setting": "S. aureus (ATCC 29213)", "result": "inhibited"}, {"measurement": "killing of C. albicans by human neutrophils", "setting": "[3]", "result": "enhanced killing"}, {"measurement": "enhancing effect of urokinase on S. aureus colony formation", "setting": "S. aureus", "result": "significantly inhibited"}, {"measurement": "cAMP content of C. albicans", "setting": "C. albicans [5]", "result": "enhanced cAMP content"}, {"measurement": "inhibition of p24 release", "setting": "[9]; TNF-α-stimulated U1 cells, picomolar peptide concentrations that occur in human plasma", "result": "34-36%"}, {"measurement": "most effective concentration for HIV inhibition (p24 release)", "setting": "[9]; TNF-α-stimulated U1 cells", "result": "10^−5 M"}]}
{"substance": "[Nle^4, D-Phe^7], α-MSH", "values": [{"measurement": "potency in reducing fever relative to parent peptide", "setting": "[10]", "result": "approximately ten times more potent than the parent peptide"}]}
